Results on 10 compounds are retold here after ChEMBL document CHEMBL1130439, “Constrained analogues of 2-nor cyclic nucleoside monophosphates” (1997).

Experiment [1] relates to F2002 cell line. In words: The compound was tested for inhibitory activity against human cytomegalovirus (HCMV) in flow 2002 cells. The note with it: read-out: CD50 (the source's name). Type of experiment: functional.
For experiment [2], the system named is F2002 cell line. Kind of experiment: The compound was tested for inhibitory activity against human cytomegalovirus (HCMV) (WFl strain) in plaque reduction assay in flow 2002 cells. Type of experiment: functional. (In a plaque reduction assay, fewer plaques than in the control indicate reduced infectivity or spread.)
Experiment [3] relates to MT4. Kind of experiment: Compound was tested against HIV-l (RF strain) in plaque reduction assay in MT-4 cells; no inhibition up to 100 ug/ml. Type of experiment: functional, cell-based. The note with it: Homo sapiens.
In experiment [4] the test system is Vero. In words: Compound was tested against HSV-1 (KOS strain) in plaque reduction assay in Vero cells; no inhibition up to 100 ug/ml. Type of experiment: functional, cell-based. The note with it: Chlorocebus sabaeus.
The subject of experiment [5] is Vero. Kind of experiment: Compound was tested against HSV-2 (186 strain) in plaque reduction assay in Vero cells; no inhibition up to 100 ug/ml. Type of experiment: functional, cell-based. Particulars: Chlorocebus sabaeus.
Experiment [6] deals with MT4. Kind of experiment: Compound was tested against HIV-l (RF strain) in plaque reduction assay in MT-4 cells; no inhibition up to 100 ug/ml.. Type of experiment: functional, cell-based. The note with it: Homo sapiens.
Experiment [7] relates to F2002 cell line. Kind of experiment: The compound was tested for inhibitory activity against human cytomegalovirus (HCMV) in flow 2002 cells; no inhibition up to 100 ug/ml. Type of experiment: functional, cell-based.

Consider `Cc1cn(C2CSC3(COP(=O)(O)OC3)O2)c(=O)[nH]c1=O` (stereo not given), for which the CC50 in the experiment on F2002 cell line [1] was above 100 µg/mL. In the experiment with F2002 cell line [2], this compound gave a PD50 above 100 µg/mL. For the same compound, the Activity result with MT4 [3], in the experiment on Vero [4] and in the experiment with Vero [5] was “No inhibition” in each case.
On to `Nc1nc(=O)n(C2CSC3(COP(=O)(O)OC3)O2)cc1F` (stereo not given), for which, in the experiment with F2002 cell line [1], the CC50 was above 100 µg/mL. In addition, the PD50 in the experiment with F2002 cell line [2] is above 100 µg/mL. The Activity result in the experiment on MT4 [3], with Vero [4] and in the experiment with Vero [5] was “No inhibition” each time.
For `O=c1ccn(C2CSC3(COP(=O)(O)OC3)O2)c(=O)[nH]1` (stereo not given), the CC50 in the experiment with F2002 cell line [1] is above 100 µg/mL. This compound returned a PD50 with F2002 cell line [2] of 2.5 µg/mL. Moreover, the Activity entry in the experiment on MT4 [6], in the experiment on Vero [4] and in the experiment on Vero [5] was “No inhibition” each time.
Take `N.Nc1nc2c(ncn2C2CSC3(COP(=O)(O)OC3)O2)c(=O)[nH]1` (stereo not given): the CC50 with F2002 cell line [1] was above 100 µg/mL. Also, in the experiment with F2002 cell line [2], the PD50 was above 100 µg/mL. For the same compound, the Activity result in the experiment with MT4 [3], with Vero [4] and in the experiment with Vero [5] was “No inhibition” throughout.
As for `Nc1nc2c(ncn2COC(CO)CO)c(=O)[nH]1` [GANCICLOVIR], in the experiment with F2002 cell line [1], the CC50 is above 100 µg/mL. This compound returned a PD50 with F2002 cell line [2] of 0.1 µg/mL.
For `O=c1ccn(C2CSC(CO)(CO)O2)c(=O)[nH]1` (stereo not given), the Activity entry in the experiment on F2002 cell line [7] is “No inhibition”.
On the same count and under the same terms, under `CC(=O)Nc1nc(=O)n(C2CSC(CO)(CO)O2)cc1Br` (stereo not given) stands “No inhibition”.
Take `N.Nc1ccn(C2CSC3(COP(=O)(O)OC3)O2)c(=O)n1` (stereo not given): in the experiment with F2002 cell line [1], the CC50 is above 100 µg/mL. The compound further returned a PD50 with F2002 cell line [2] of 11 µg/mL. In addition, the Activity entry with MT4 [3], with Vero [4] and in the experiment on Vero [5] was “No inhibition” in each case.
As to `CC(=O)Nc1ccn(C2CSC(CO)(CO)O2)c(=O)n1` (stereo not given), the Activity entry in the experiment on F2002 cell line [7] is “No inhibition”.
For the compound `Nc1nc(=O)n(C2CSC3(COP(=O)(O)OC3)O2)cc1Br` (stereo not given), the CC50 in the experiment on F2002 cell line [1] is above 100 µg/mL. The compound further returned a PD50 in the experiment on F2002 cell line [2] of 2.5 µg/mL. The Activity entry in the experiment with MT4 [3], in the experiment with Vero [4] and with Vero [5] was “No inhibition” throughout.
